How the values were obtained:
Format in all cases: cell-based
hNLRP3 = molecular target: T1, hNLRP3 (Homo sapiens, UniProt Q96P20); experiment: hNLRP3 agonist assay: IL-1β production in PMA-differentiated THP-1 cells (ELISA); conditions: Table 2, 4 hours, IL-1β by ELISA
T1 construct: THP-1 cells were purchased from the American Type Culture Collection; host or cells: THP-1 cells, PMA-differentiated
Protocol: THP-1 cells were purchased from the American Type Culture Collection and sub-cultured according to instructions from the supplier. Prior to experiments, cells were cultured in RPMI 1640 containing 10% heat inactivated FBS, penicillin (100 units/ml) and streptomycin (100 μg/ml), and maintained in log phase prior to experimental setup. Prior to the experiment THP-1 were treated with PMA (Phorbol 12-myristate 13-acetate) (10 μg/ml) for 24 hours. The day of the experiment the media was removed and attaching cells were treated with trypsin for 2 minutes, cells were then collected, washed with PBS (phosphate buffer saline), spin down, resuspended in 2% heat inactivated FBS with RPMI at a concentration of 1×10^6 cells/ml, and 100 μl was plated in a 96 well plate. Cells were incubated with compounds for 4 hours. Cell free supernatant was collected and the production of IL-1β was evaluated by ELISA. Compounds were dissolved in dimethyl sulfoxide (DMSO) and added to the culture medium to achieve desired concentration (e.g. 100, 30, 10, 3, 1, 0.3 or 0.1 μM). A vehicle only control was run concurrently with each experiment. Final DMSO concentration was 1%.

TLR8 = molecular target: T2, TLR8 (Homo sapiens, UniProt Q9NR97); experiment: TLR8 EC50 assay; conditions: Table 2
T2 sequence (Q9NR97 27-1041): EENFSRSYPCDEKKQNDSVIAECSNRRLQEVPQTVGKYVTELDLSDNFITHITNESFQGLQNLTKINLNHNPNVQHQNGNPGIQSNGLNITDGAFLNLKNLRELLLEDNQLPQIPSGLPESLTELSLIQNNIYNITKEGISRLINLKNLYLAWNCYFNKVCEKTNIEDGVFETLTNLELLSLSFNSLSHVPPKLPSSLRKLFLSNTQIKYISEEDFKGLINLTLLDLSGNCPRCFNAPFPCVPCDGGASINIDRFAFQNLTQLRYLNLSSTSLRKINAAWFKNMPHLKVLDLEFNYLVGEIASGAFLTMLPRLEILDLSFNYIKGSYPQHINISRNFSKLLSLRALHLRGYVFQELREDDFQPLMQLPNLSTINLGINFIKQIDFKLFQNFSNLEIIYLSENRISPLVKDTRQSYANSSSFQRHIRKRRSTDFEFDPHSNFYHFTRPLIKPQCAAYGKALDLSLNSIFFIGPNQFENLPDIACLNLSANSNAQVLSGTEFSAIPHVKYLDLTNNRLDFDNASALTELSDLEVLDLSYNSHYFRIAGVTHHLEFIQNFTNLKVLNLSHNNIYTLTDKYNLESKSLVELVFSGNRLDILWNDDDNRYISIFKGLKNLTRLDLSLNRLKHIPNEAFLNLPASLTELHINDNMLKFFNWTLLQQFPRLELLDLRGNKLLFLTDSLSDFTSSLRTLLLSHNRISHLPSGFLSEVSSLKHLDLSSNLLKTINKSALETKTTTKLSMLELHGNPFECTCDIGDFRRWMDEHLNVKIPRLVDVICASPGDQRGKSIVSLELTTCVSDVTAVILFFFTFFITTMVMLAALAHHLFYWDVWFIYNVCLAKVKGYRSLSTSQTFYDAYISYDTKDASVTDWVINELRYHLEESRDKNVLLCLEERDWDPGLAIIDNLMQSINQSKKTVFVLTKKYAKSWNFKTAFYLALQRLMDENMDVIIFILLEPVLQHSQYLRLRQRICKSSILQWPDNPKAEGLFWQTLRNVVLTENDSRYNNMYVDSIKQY

TLR7 = molecular target: T3, TLR7 (Homo sapiens, UniProt Q9NYK1); experiment: TLR7 EC50 assay; conditions: Table 2
T3 sequence (Q9NYK1 27-1049): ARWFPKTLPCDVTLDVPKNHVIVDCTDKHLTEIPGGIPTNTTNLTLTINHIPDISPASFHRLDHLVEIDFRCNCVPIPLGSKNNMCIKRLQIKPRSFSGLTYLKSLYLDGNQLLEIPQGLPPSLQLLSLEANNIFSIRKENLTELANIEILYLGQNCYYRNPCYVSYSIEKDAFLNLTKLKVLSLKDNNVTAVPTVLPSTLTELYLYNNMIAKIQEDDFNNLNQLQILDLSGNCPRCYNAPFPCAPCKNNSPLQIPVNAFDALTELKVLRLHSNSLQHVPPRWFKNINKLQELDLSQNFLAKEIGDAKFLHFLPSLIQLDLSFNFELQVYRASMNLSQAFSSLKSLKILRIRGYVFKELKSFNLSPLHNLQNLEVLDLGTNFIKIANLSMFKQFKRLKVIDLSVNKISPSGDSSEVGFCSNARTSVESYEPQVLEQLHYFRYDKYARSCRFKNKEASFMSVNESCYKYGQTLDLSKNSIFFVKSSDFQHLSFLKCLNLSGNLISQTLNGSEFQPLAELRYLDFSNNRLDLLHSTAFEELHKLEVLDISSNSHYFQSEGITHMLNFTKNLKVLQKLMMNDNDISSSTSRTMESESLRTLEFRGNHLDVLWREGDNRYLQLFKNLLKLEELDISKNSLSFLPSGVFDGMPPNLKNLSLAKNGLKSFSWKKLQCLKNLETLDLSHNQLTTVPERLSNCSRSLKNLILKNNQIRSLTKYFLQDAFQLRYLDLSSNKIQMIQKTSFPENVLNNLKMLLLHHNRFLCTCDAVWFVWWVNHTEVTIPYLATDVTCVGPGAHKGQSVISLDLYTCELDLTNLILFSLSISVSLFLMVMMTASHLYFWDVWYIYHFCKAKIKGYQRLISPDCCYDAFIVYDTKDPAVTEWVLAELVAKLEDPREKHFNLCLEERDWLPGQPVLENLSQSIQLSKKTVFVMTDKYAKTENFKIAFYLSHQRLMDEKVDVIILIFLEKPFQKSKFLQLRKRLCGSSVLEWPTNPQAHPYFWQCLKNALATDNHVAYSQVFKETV

T1 sequence (Q96P20 whole entry): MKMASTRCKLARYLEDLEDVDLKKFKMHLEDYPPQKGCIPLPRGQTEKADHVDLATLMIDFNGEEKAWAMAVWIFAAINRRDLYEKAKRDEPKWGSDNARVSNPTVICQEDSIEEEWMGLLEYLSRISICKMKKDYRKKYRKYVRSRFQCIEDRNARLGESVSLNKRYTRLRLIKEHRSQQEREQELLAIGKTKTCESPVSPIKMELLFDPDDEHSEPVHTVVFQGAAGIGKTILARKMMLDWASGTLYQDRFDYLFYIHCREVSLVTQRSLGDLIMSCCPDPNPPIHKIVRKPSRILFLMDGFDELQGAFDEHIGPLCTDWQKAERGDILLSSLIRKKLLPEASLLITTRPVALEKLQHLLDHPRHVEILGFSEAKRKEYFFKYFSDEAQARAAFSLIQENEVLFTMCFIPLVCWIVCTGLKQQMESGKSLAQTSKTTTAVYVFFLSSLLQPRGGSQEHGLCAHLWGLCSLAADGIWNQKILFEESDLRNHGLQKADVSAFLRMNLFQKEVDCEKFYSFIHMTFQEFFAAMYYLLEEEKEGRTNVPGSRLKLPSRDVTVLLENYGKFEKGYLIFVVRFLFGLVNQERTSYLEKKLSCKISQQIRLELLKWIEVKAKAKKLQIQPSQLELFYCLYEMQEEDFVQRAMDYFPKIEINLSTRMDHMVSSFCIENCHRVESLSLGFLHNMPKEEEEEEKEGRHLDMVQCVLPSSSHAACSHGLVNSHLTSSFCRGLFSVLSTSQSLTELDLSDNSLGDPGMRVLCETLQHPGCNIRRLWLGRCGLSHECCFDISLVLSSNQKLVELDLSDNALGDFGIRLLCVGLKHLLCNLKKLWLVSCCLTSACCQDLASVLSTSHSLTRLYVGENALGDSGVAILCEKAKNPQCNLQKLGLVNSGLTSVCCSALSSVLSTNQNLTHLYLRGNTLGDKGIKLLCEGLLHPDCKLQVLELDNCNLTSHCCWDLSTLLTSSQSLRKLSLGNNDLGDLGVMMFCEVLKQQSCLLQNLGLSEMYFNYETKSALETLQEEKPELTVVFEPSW

EC50 (hNLRP3) | EC50 (TLR8) | EC50 (TLR7) | SMILES
> 100 µM | > 100 µM | > 100 µM | Cc1ccc(-c2ccc3c(c2)nc(N)c2nc(CCCO)[nH]c23)cn1 [Compound 172, 3-[4-amino-7-(6-methylpyridin-3-yl)-1H-imidazo[4,5-c]quinolin-2-yl]propan-1-ol]
> 100 µM | > 100 µM | > 100 µM | COc1cncc(-c2ccc3c(c2)nc(N)c2nc(CCCO)[nH]c23)c1 [Compound 175, 3-[4-amino-7-(5-methoxypyridin-3-yl)-1H-imidazo[4,5-c]quinolin-2-yl]propan-1-ol]
> 100 µM | > 100 µM | > 100 µM | CN(C)c1nc(-c2ccc3c(c2)nc(N)c2nc(CCCO)[nH]c23)cs1 [Compound 177, 3-[4-amino-7-[2-(dimethylamino)-1,3-thiazol-4-yl]-1H-imidazo[4,5-c]quinolin-2-yl]propan-1-ol]
> 100 µM | > 100 µM | > 100 µM | Nc1nc2cc(-n3ccnc3)ccc2c2[nH]c(CCCO)nc12 [Compound 179, 3-(4-amino-7-imidazol-1-yl-1H-imidazo[4,5-c]quinolin-2-yl)propan-1-ol]
> 100 µM | > 100 µM | > 100 µM | Nc1nc2cc(NC(=O)c3ccccc3)ccc2c2[nH]c(CCCO)nc12 [Compound 180, N-[4-amino-2-(3-hydroxypropyl)-1H-imidazo[4,5-c]quinolin-7-yl]benzamide]
1 to 20 µM | > 100 µM | > 100 µM | Cc1cnn(-c2ccc3c(c2)nc(N)c2nc(CCCO)[nH]c23)c1 [Compound 181, 3-[4-amino-7-(4-methylpyrazol-1-yl)-1H-imidazo[4,5-c]quinolin-2-yl]propan-1-ol]
> 100 µM | > 100 µM | > 100 µM | Nc1nc2cc(-n3cnc4ccccc43)ccc2c2[nH]c(CCCO)nc12 [Compound 182, 3-[4-amino-7-(benzimidazol-1-yl)-1H-imidazo[4,5-c]quinolin-2-yl]propan-1-ol]
≤ 1 µM | > 100 µM | > 100 µM | Nc1nc2cc(-c3ccccn3)ccc2c2[nH]c(CCCO)nc12 [Compound 185, 3-(4-amino-7-pyridin-2-yl-1H-imidazo[4,5-c]quinolin-2-yl)propan-1-ol]
≤ 1 µM | > 100 µM | > 100 µM | Nc1nc2cc(-c3cccs3)ccc2c2[nH]c(CCCO)nc12 [Compound 187, 3-(4-amino-7-thiophen-2-yl-1H-imidazo[4,5-c]quinolin-2-yl)propan-1-ol]
20 to 100 µM | > 100 µM | > 100 µM | Nc1nc2cc(-c3cncnc3)ccc2c2[nH]c(CCCO)nc12 [Compound 188, 3-(4-amino-7-pyrimidin-5-yl-1H-imidazo[4,5-c]quinolin-2-yl)propan-1-ol]
≤ 1 µM | > 100 µM | > 100 µM | Nc1nc2cc(-c3cc[nH]n3)ccc2c2[nH]c(CCCO)nc12 [Compound 189, 3-[4-amino-7-(1H-pyrazol-3-yl)-1H-imidazo[4,5-c]quinolin-2-yl]propan-1-ol]

The remaining lines, values behind:

SMILES | EC50 (hNLRP3) | EC50 (TLR8) | EC50 (TLR7)
Nc1nc2cc(N3CCOCC3)ccc2c2[nH]c(CCCO)nc12 [Compound 168, 3-(4-amino-7-morpholin-4-yl-1H-imidazo[4,5-c]quinolin-2-yl)propan-1-ol] | > 100 µM | > 100 µM | > 100 µM
CN(C)C(=O)CCCn1c(CCCO)nc2c(N)nc3cc(Br)ccc3c21 [Compound 169] | 1 to 20 µM | > 100 µM | > 100 µM
Nc1ccc(-c2ccc3c(c2)nc(N)c2nc(CCCO)[nH]c23)cn1 [Compound 170, 3-[4-amino-7-(6-aminopyridin-3-yl)-1H-imidazo[4,5-c]quinolin-2-yl]propan-1-ol] | > 100 µM | > 100 µM | > 100 µM
COc1ccncc1-c1ccc2c(c1)nc(N)c1nc(CCCO)[nH]c12 [Compound 171, 3-[4-amino-7-(4-methoxypyridin-3-yl)-1H-imidazo[4,5-c]quinolin-2-yl]propan-1-ol] | > 100 µM | > 100 µM | > 100 µM
CSc1ccc(-c2ccc3c(c2)nc(N)c2nc(CCCO)[nH]c23)cn1 [Compound 173, 3-[4-amino-7-(6-methylsulfanylpyridin-3-yl)-1H-imidazo[4,5-c]quinolin-2-yl]propan-1-ol] | > 100 µM | > 100 µM | > 100 µM
Nc1nc2cc(C3CCCCC3)ccc2c2[nH]c(CCCO)nc12 [Compound 174, 3-(4-amino-7-cyclohexyl-1H-imidazo[4,5-c]quinolin-2-yl)propan-1-ol] | 20 to 100 µM | > 100 µM | > 100 µM
Nc1nc2cc(-c3ccc(O)nc3)ccc2c2[nH]c(CCCO)nc12 [Compound 176, 5-[4-amino-2-(3-hydroxypropyl)-1H-imidazo[4,5-c]quinolin-7-yl]pyridin-2-ol] | > 100 µM | > 100 µM | > 100 µM
Nc1nc2cc(-n3cccn3)ccc2c2[nH]c(CCCO)nc12 [Compound 178, 3-(4-amino-7-pyrazol-1-yl-1H-imidazo[4,5-c]quinolin-2-yl)propan-1-ol] | ≤ 1 µM | 20 to 100 µM | > 100 µM
Nc1nc2cc(N3CCCC3=O)ccc2c2[nH]c(CCCO)nc12 [Compound 183, 1-[4-amino-2-(3-hydroxypropyl)-1H-imidazo[4,5-c]quinolin-7-yl]pyrrolidin-2-one] | 20 to 100 µM | > 100 µM | > 100 µM
Nc1nc2cc(-c3nccs3)ccc2c2[nH]c(CCCO)nc12 [Compound 184, 3-[4-amino-7-(1,3-thiazol-2-yl)-1H-imidazo[4,5-c]quinolin-2-yl]propan-1-ol] | > 100 µM | > 100 µM | > 100 µM
Nc1nc2cc(-c3ccsc3)ccc2c2[nH]c(CCCO)nc12 [Compound 186, 3-(4-amino-7-thiophen-3-yl-1H-imidazo[4,5-c]quinolin-2-yl)propan-1-ol] | ≤ 1 µM | > 100 µM | > 100 µM
